Structures can show the parent of a compound that is named as a salt.
tested on: urine-derived renal epithelial cells; assay: AP staining of iPSC clones after induction culture (efficiency of AP positive clones); format: cell-based, human; conditions: Example 5, FIG. 11-12
Protocol: 1. The procedure for AP staining is as follows,
a) Aspirate and remove the growth medium from the cultures to be stained when the cell culture is finished, wash the culture with 1×PBS one time; Fix the cells with 4% paraformaldehyde at room temperature for 2 min;
b) Aspirate the fixing solution, wash the culture with 1×TBST for 3 times; Balance with AP buffer at room temperature for 5 min;
c) Chromogenic reaction was performed with AP chromogenic reagent at room temperature in dark for 15 min (5-15 min, terminated when the color of clones became darker and without background, increase the reaction time appropriately if the clones were not stained). The chromogenic reagent was aspirated, cells were washed with 1×PBS for two times, covered with an appropriate amount of 1×PBS, observed and counted under a microscope.
Alkaline phosphatase (AP) is a phosphomonoesterase. The alkaline phosphatase in the cytoplasm can hydrolyze sodium naphthol phosphate to produce α-naphthol in alkaline environments. The latter reacts with a stable azo salt and presents a deep purple color, which the presence of alkaline phosphatase and the abundance of expression could be determined accordingly. Alkaline phosphatase is highly expressed in undifferentiated pluripotent stem cells, and the activity of alkaline phosphatase in the differentiated pluripotent stem cells is decreased. Therefore, whether the cells are clones of iPSCs could be determined by alkaline phosphatase staining (AP staining). And, thus the efficiency of iPSCs production can be easily judged according to the efficiency of AP positive clones.
In Example 1-2 and 4-6, the efficiency of AP positive clones was determined based on the number of cells in each group after electroporation transformation, ie the efficiency of AP positive clones=number of AP positive clones/number of passaged cells per well after electroporation in each group;
In Example 3 and 7-10, the efficiency of AP positive clones was determined based on the total number of cells after electroporation transformation, i.e. the efficiency of AP positive clones=number of AP positive clones/total number of cells after electroporation transformation.
a) Electroporation transformation: The recombinant plasmids obtained in step 1) were added into the culture of renal epithelial cells after digestion with trypsin, and then transferred into the renal epithelial cells. […]
b) Induction culture: 1-3 days after Step 1), or when the cells reached a confluence of 30% or more, the culture medium of pluripotent stem cell was used to continue induction culture. About 15-30 days after the mature of iPSCs clones, the positive clones of iPSCs were identified by AP staining, and the efficiency of AP positive clones was calculated accordingly;

Compound | preferable concentration (AP staining)
Cc1c[nH]c(-c2cnc(NCCNc3ccc(C#N)cn3)nc2-c2ccc(Cl)cc2Cl)n1 [CHIR-99021] | 3 µM
O=C(NOC[C@H](O)CO)c1ccc(F)c(F)c1Nc1ccc(I)cc1F [PD0325901] | 0.5 µM
CCCC(=O)[O-].[Na+] [sodium butyrate, Sodium Butyrate] | 250 µM
N[C@@H]1C[C@H]1c1ccccc1 [tranylcypromine hydrochloride, Tranylcypromine hydrochloride] | 2 µM

Source: patent publication US20170356005A1, “NON-VIRAL IPSCS INDUCING COMPOSITION AND KITS” (Guangzhou Biocare Biotechnology Co., Ltd, priority 2016, published 2017)
